Results as given in article PMC11649380 (Inorganic chemistry, 2022).
Where two headings read alike, the source gives them in different places.

Columns and labels:
[1] = Aquation kinetics of axial ligand dissociation by 1H NMR spectroscopy; format: physicochemical; conditions: for k1 × 10^5 (first aquation rate constant) / k2 × 10^4 (second aquation rate constant): 37 °C, pH 7.4 MOPS-buffered solution, 400 μM complex, 1H NMR; for half-life: mops buffer, pH 7.4
[2] = target: T1, mitochondrial calcium uniporter (MCU) (Homo sapiens, UniProt Q8NE86); assay: Mitochondrial Ca2+ uptake inhibition in digitonin-permeabilized HEK293T cells; format: cell-based
T1 sequence (Q8NE86 51-351): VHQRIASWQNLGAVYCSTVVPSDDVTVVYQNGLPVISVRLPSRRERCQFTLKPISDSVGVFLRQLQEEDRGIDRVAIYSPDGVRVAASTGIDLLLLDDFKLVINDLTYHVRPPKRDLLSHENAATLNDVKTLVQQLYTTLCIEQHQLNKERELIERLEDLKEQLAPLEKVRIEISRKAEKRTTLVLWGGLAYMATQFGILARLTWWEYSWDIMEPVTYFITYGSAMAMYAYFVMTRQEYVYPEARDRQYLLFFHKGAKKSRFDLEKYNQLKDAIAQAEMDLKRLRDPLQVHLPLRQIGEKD
T1 sequence (Q9H4I9 48-107 partner limits assumed): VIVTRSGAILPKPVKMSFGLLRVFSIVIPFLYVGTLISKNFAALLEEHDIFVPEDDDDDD

[3] = test system: HeLa cells; assay: Cellular uptake by GFAAS in HeLa cells; format: cell-based; conditions: 50 μM for 2 h
[4] = test system: HEK293T cells; assay: Cellular uptake by GFAAS in HEK293T cells; format: cell-based; conditions: 50 μM for 2 h
[5] = target: T2, organic cation transporter 3 (OCT3) (Homo sapiens, UniProt O75751); assay: Role of OCT3 in cellular uptake; format: cell-based; conditions: HeLa, 50 μM complex, 1 μM decynium-22, 3 h
T2 sequence (O75751 1-556): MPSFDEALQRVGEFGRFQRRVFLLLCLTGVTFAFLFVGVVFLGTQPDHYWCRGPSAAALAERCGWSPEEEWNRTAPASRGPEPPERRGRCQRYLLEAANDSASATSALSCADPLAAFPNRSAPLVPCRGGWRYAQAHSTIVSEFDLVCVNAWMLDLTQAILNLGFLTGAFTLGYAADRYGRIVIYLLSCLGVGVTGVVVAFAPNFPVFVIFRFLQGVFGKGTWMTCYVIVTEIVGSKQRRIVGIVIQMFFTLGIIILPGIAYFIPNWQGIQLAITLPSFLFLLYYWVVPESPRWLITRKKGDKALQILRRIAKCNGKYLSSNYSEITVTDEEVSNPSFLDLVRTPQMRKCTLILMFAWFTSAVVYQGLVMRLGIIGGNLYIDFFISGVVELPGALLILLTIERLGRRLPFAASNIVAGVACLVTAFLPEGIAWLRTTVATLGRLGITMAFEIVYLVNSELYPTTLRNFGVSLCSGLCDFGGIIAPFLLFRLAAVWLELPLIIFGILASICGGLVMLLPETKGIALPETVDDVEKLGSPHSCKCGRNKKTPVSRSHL

[6] = ref [51], cited from earlier work
[7] = target: T1, mitochondrial calcium uniporter (MCU); conditions: read-out: IC50 of MCU-mediated mCa2+ uptake inhibition; permeabilized HEK293T cells (1 × 10^7 cells/mL); ref [46]; cited from earlier work

CCCC(=O)[O-].CCCC(=O)[O-].N.N.N.N.N.N.N.N.[N-3].[Ru+4].[Ru+4] [Complex 4, [(CH3(CH2)2CO2)Ru(NH3)4(μ-N)Ru(NH3)4(O2C(CH2)2CH3)](OSO2CF3)3]
k1 × 10^5 (first aquation rate constant) [1]: 3.2 ± 0.1 s^−1
k2 × 10^4 (second aquation rate constant) [1]: 2.8 ± 0.2 s^−1
half-life [1]: 5.9 ± 0.2 h
IC50 [2]: 18.7 ± 0.1 nM

N.N.N.N.N.N.N.N.[Cl][Ru+3].[N-]=[Ru][Cl] [Ru265, [ClRu(NH3)4(μ-N)Ru(NH3)4Cl]Cl3]
mCa2+ uptake at 1 μM ([2]; freshly prepared 1 μM solutions, permeabilized HEK293T cells): complete abrogation of mCa^2+ uptake
cellular uptake (intracellular Ru accumulation) [3]: taken up by both cell lines to a similar extent
cellular uptake (intracellular Ru accumulation) [4]: taken up by both cell lines to a similar extent
cellular uptake in the presence of the OCT3 inhibitor decynium-22 [5]: diminished in the presence of the OCT3 inhibitor
t1/2 (1) (half-life of first aquation step) ([6]; 37 °C, UV-vis spectroscopy): 2.28 min
k1 × 10^5 (first aquation rate constant) ([6]; 37 °C, determined using UV-vis spectroscopy, first aquation step only): 49.2 s^−1
half-life of aquation of axial chloride ligands ([6]; same conditions (pH 7.4, 37 °C)): approximately 2 min

CC(=O)[O-].CC(=O)[O-].N.N.N.N.N.N.N.N.[N-3].[Ru+4].[Ru+4] [Complex 2, [(CH3CO2)Ru(NH3)4(μ-N)Ru(NH3)4(O2CCH3)](NO3)3]
k1 × 10^5 (first aquation rate constant) [1]: 2.0 ± 0.5 s^−1
k2 × 10^4 (second aquation rate constant) [1]: 3.0 ± 1.2 s^−1
half-life [1]: 9.9 ± 2.4 h

CCC(=O)[O-].CCC(=O)[O-].N.N.N.N.N.N.N.N.[N-3].[Ru+4].[Ru+4] [Complex 3, [(CH3CH2CO2)Ru(NH3)4(μ-N)Ru(NH3)4(O2CCH2CH3)](NO3)3]
k1 × 10^5 (first aquation rate constant) [1]: 2.8 ± 0.1 s^−1
k2 × 10^4 (second aquation rate constant) [1]: 3.3 ± 0.5 s^−1
half-life [1]: 6.9 ± 0.2 h

N.N.N.N.N.N.N.N.[Cl][Ru+3].[NH]=[Ru][Cl] [Ru265, [ClRu(NH3)4(μ-N)Ru(NH3)4Cl]Cl3]
IC50 [7]: 8.6 ± 2.2 nM

N.N.N.N.N.N.N.N.O=C[O-].O=C[O-].[N-3].[Ru+4].[Ru+4] [Complex 1, [(HCO2)Ru(NH3)4(μ-N)Ru(NH3)4(O2CH)](NO3)3]
k1 × 10^5 (first aquation rate constant) [1]: 5.9 ± 0.2 s^−1
k2 × 10^4 (second aquation rate constant) [1]: 3.6 ± 0.3 s^−1
half-life [1]: 3.3 ± 0.1 h
